How the values were obtained:
human 5HT1B = target: T1, human 5HT1B (Homo sapiens, UniProt P28222); test: Radioligand binding, 5HT1B receptor ([3H]-serotonin); conditions: for Ki: Table 7, read-out: h5HT1B Ki; for selectivity ratio h5HT1B: Table 8, Ki h5HT1B divided by Ki hGAL3
T1 construct: expressed in transfected cells
Procedure: (§1) Human 5HT1B, 5HT1D, 5HT1E, 5HT1F, and 5HT7 Receptors: The cell lysates of LM(tk-) clonal cell line stably transfected with the genes encoding each of these 5HT receptor-subtypes were prepared as described above. Cell membranes were suspended in 50mM Tris-HCl buffer (pH 7.4 at 37°C) containing 10 mM MgCl2, 0.2 mM EDTA, 10 µM pargyline, and 0.1% ascorbate. […] Nonspecific binding was determined in the presence of 10 µM serotonin. The bound radioligand was separated by filtration through GF/B filters using a cell harvester.
(§2) Binding data were analyzed using nonlinear regression and statistical techniques available in the GraphPAD Prism package (San Diego, CA). Enzymatic assay data were derived from a standard curve of reference compound data.

human 5HT1E = target: T2, human 5HT1E (Homo sapiens, UniProt P28566); test: Radioligand binding, 5HT1E receptor ([3H]-serotonin); conditions: for Ki: Table 7, read-out: h5HT1E Ki; for selectivity ratio h5HT1E: Table 8, Ki h5HT1E divided by Ki hGAL3
T2 construct: expressed in transfected cells
Procedure: as §1, §2

rat 5HT2C receptor = target: T3, rat 5HT2C receptor (Rattus norvegicus, UniProt P08909); test: Radioligand binding, 5HT2C receptor; conditions: for Ki: Table 7, read-out: r5HT2C Ki; for selectivity ratio r5HT2C: Table 8, Ki r5HT2C divided by Ki hGAL3
T3 construct: expressed in transfected cells
T3 sequence (P08909 33-460): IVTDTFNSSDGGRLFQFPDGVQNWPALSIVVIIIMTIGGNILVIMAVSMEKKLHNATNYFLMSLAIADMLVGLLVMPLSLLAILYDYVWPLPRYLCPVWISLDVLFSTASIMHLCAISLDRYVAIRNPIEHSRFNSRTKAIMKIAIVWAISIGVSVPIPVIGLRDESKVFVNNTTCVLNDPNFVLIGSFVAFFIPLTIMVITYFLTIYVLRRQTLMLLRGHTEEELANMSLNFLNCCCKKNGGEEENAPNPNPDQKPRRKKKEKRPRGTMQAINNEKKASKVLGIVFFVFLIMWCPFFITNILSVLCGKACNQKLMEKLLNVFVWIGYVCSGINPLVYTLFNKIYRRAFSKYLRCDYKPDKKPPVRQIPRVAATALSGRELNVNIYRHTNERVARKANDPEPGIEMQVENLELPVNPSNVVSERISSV
Procedure: (§3) Other 5-HT Receptors: Other serotonin receptor binding assays were performed according to published methods: rat 5HT2C receptor (Julius et al., 1988); and 5-HT6 (Monsma, et al., 1993). The binding assays using the 5-HT4 receptor were performed according to the procedures described in U.S. Patent No. 5,766,879, the disclosure of which is hereby incorporated by reference in its entirety into this application.
as §2

human 5HT6 = target: T4, human 5HT6 (Homo sapiens, UniProt P50406); test: Radioligand binding, 5-HT6 receptor; conditions: for Ki: Table 7, read-out: h5HT6 Ki; for selectivity ratio h5HT6: Table 8, Ki h5HT6 divided by Ki hGAL3
T4 construct: expressed in transfected cells
Procedure: as §3, §2

human α2B adrenoceptor = target: T5, human α2B adrenoceptor (Homo sapiens, UniProt P18089); test: Radioligand binding, α2B adrenergic receptor; conditions: for Ki: Table 9, read-out: hα2B Ki; for selectivity ratio hα2B: Table 10, Ki hα2B divided by Ki hGAL3
T5 construct: expressed in transfected cells
T5 sequence (P18089 1-450): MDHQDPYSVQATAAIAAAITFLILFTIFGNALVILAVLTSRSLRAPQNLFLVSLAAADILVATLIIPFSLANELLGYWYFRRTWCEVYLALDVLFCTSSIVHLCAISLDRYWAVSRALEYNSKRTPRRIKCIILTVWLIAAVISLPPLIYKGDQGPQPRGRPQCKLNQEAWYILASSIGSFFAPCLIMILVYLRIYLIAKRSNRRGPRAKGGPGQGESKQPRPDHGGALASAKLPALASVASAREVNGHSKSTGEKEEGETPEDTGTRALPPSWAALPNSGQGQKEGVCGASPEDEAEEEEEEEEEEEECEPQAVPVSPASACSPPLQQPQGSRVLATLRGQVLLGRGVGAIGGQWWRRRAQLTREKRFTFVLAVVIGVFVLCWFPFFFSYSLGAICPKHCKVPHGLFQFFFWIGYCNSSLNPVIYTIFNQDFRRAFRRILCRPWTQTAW
Text: (§4) Other receptors: Cell membranes expressing human dopamine D1, D2, D4 and rat D3 receptors were purchased through BioSignal, Inc. (Montreal, Canada). Binding assays using the histamine H1 receptor; dopamine receptors; and α1A, α1E, and α2 adrenergic receptors may be carried out according to the procedures described in U.S. Patent No. 5,780,485, the disclosure of which is hereby incorporated by reference in its entirety into this application. Binding assays using the dopamine D5 receptor may be carried out according to the procedures described in U.S. Patent No. 5,882,855, the disclosure of which is hereby incorporated by reference in its entirety into this application. Binding assays for the human α1D adrenergic receptor may be carried out according to the procedures described in U.S. Patent No. 6,156,518, the disclosure of which is hereby incorporated by reference in its entirety into this application.
as §2

human α2C adrenoceptor = target: T6, human α2C adrenoceptor (Homo sapiens, UniProt P18825); test: Radioligand binding, α2C adrenergic receptor; conditions: for Ki: Table 9, read-out: hα2C Ki; for selectivity ratio hα2C: Table 10, Ki hα2C divided by Ki hGAL3
T6 construct: expressed in transfected cells
T6 sequence (P18825 1-462): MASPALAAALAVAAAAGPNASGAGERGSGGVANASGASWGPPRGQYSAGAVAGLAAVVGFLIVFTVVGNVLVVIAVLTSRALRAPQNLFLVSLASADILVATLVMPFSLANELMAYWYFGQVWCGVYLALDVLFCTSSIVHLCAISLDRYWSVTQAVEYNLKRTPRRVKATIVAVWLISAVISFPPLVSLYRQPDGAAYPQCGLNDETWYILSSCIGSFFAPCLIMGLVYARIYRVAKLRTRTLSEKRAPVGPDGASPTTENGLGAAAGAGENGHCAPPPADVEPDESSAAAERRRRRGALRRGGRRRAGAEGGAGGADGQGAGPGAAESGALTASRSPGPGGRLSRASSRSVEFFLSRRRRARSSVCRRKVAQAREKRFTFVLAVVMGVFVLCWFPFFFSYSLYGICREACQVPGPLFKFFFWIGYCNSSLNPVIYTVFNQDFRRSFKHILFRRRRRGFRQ
Text: as §4, §2

human dopamine D2 = target: T7, human dopamine D2 (Homo sapiens, UniProt P14416); test: Radioligand binding, dopamine D2 receptor; conditions: for Ki: Table 9, read-out: hD2 Ki; for selectivity ratio hD2: Table 10, Ki hD2 divided by Ki hGAL3
T7 construct: purchased BioSignal, Inc. (Montreal, Canada)
Text: as §4, §2

dopamine D5 receptor = target: T8, dopamine D5 receptor (Homo sapiens, UniProt P21918); test: Radioligand binding, dopamine D5 receptor; conditions: for Ki: Table 9, read-out: hD5 Ki; for selectivity ratio hD5: Table 10, Ki hD5 divided by Ki hGAL3
T8 construct: expressed in transfected cells
Text: as §4, §2

T2 sequence (P28566 whole entry): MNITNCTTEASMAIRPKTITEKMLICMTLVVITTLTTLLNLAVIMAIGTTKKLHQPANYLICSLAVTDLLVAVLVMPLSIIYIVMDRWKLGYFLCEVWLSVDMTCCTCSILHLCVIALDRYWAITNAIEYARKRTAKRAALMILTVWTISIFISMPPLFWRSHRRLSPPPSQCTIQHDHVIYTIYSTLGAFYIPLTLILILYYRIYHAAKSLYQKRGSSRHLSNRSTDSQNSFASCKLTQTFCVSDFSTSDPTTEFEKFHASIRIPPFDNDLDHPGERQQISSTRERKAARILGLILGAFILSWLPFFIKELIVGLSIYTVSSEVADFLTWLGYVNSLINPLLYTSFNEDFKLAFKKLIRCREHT
T4 sequence (P50406 whole entry): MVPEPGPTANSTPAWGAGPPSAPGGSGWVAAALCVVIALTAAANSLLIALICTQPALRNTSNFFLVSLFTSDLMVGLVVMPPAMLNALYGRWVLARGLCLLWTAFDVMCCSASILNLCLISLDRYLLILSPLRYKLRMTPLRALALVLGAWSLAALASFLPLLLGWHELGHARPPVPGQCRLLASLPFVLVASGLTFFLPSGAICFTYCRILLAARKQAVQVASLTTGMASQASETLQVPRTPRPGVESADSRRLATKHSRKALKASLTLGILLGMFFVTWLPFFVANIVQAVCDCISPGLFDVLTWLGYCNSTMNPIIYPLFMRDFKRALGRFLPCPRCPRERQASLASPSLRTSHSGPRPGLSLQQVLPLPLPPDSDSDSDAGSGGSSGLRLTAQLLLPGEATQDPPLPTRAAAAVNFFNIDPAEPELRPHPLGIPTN
T7 sequence (P14416 whole entry): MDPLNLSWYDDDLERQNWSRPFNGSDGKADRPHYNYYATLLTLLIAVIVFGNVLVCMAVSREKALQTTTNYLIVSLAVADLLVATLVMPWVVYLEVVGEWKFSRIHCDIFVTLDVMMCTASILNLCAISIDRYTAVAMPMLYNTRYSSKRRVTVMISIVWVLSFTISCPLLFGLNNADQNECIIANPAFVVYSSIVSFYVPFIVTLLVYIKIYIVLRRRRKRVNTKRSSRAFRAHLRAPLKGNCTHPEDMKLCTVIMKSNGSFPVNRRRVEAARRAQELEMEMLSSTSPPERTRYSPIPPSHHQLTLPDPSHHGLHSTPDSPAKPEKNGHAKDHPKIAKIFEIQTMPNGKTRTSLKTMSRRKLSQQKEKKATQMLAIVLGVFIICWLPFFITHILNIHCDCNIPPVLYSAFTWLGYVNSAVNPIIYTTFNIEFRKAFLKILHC
T8 sequence (P21918 whole entry): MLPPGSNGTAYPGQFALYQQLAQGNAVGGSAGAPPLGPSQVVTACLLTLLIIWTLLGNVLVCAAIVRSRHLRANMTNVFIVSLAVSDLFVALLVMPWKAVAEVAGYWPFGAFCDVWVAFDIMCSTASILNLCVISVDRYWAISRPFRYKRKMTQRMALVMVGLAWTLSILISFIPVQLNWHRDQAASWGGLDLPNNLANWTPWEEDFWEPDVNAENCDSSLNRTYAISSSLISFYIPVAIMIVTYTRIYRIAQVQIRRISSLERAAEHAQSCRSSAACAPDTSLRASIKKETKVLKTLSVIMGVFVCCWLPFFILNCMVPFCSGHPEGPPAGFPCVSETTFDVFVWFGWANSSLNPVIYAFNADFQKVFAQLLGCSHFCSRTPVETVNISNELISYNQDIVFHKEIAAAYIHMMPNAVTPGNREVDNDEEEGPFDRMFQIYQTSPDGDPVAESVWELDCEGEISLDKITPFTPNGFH
T1 sequence (P28222 whole entry): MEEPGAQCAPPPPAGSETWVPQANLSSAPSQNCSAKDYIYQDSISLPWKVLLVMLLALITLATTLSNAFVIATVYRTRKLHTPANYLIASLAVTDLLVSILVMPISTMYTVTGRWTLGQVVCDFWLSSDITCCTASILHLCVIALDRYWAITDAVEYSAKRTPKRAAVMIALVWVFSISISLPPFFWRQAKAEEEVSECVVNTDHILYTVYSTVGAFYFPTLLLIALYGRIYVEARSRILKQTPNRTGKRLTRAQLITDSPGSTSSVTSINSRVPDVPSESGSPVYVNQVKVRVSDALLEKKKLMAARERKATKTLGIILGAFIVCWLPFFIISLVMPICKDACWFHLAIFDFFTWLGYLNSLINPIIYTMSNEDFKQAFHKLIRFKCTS

## O=C1C(=Nc2cccc(Cl)c2)c2ccccc2N1c1ccccc1 [Example 94, 3-[(3-CHLOROPHENYL)IMINO]-1-PHENYL-1,3-DIHYDRO-2H-INDOL-2-ONE]
Human 5HT1B
  Ki: 3.35 µM
  selectivity ratio h5HT1B: >30
Human 5HT1E
  Ki: 25.2 µM
  selectivity ratio h5HT1E: >100
Rat 5HT2C receptor
  Ki: 4100 nM
  selectivity ratio r5HT2C: >30
Human 5HT6
  Ki: 3.65 µM
  selectivity ratio h5HT6: >30
Human α2B adrenoceptor
  Ki: 45.4 µM
  selectivity ratio hα2B: >100
Human α2C adrenoceptor
  Ki: 47.9 µM
  selectivity ratio hα2C: >100
Human dopamine D2
  Ki: 6.25 µM
  selectivity ratio hD2: >100
Dopamine D5 receptor
  Ki: 727 nM
  selectivity ratio hD5: 15

## O=C1C(=Nc2ccc(C(F)(F)F)cc2)c2ccccc2N1c1ccccc1 [Example 95, 1-PHENYL-3-[[4-(TRIFLUOROMETHYL)PHENYL]IMINO]-1,3-DIHYDRO-2H-INDOL-2-ONE]
Human 5HT1B
  Ki: 5.23 µM
  selectivity ratio h5HT1B: >100
Human 5HT1E
  Ki: 27.2 µM
  selectivity ratio h5HT1E: >100
Rat 5HT2C receptor
  Ki: 3470 nM
  selectivity ratio r5HT2C: >100
Human 5HT6
  Ki: 21.5 µM
  selectivity ratio h5HT6: >100
Human α2B adrenoceptor
  Ki: > 50 µM
  selectivity ratio hα2B: >100
Human α2C adrenoceptor
  Ki: 48.6 µM
  selectivity ratio hα2C: >100
Human dopamine D2
  Ki: 9.72 µM
  selectivity ratio hD2: >100
Dopamine D5 receptor
  Ki: 2590 nM
  selectivity ratio hD5: >30

## O=C1C(=Nc2ccc(Cl)cc2)c2ccccc2N1c1ccccc1 [Example 97, 3-[(4-CHLOROPHENYL)IMINO]-1-PHENYL-1,3-DIHYDRO-2H-INDOL-2-ONE]
Human 5HT1B
  Ki: 5.06 µM
  selectivity ratio h5HT1B: >30
Human 5HT1E
  Ki: 22.7 µM
  selectivity ratio h5HT1E: >100
Rat 5HT2C receptor
  Ki: 1950 nM
  selectivity ratio r5HT2C: >30
Human 5HT6
  Ki: 29.1 µM
  selectivity ratio h5HT6: >100
Human α2B adrenoceptor
  Ki: > 50 µM
  selectivity ratio hα2B: >100
Human α2C adrenoceptor
  Ki: > 50 µM
  selectivity ratio hα2C: >100
Human dopamine D2
  Ki: > 50 µM
  selectivity ratio hD2: >100
Dopamine D5 receptor
  Ki: 10100 nM
  selectivity ratio hD5: >100

## O=C1C(=Nc2ccc(Br)cc2)c2ccccc2N1c1ccccc1 [Example 98, 3-[(4-BROMOPHENYL)IMINO]-1-PHENYL-1,3-DIHYDRO-2H-INDOL-2-ONE]
Human 5HT1B
  Ki: 2.42 µM
  selectivity ratio h5HT1B: >30
Human 5HT1E
  Ki: 16.2 µM
  selectivity ratio h5HT1E: >100
Rat 5HT2C receptor
  Ki: 2260 nM
  selectivity ratio r5HT2C: >30
Human 5HT6
  Ki: 14 µM
  selectivity ratio h5HT6: >100
Human α2B adrenoceptor
  Ki: > 50 µM
  selectivity ratio hα2B: >100
Human α2C adrenoceptor
  Ki: > 50 µM
  selectivity ratio hα2C: >100
Human dopamine D2
  Ki: 3.79 µM
  selectivity ratio hD2: >100
Dopamine D5 receptor
  Ki: 1200 nM
  selectivity ratio hD5: >30
